Measured values taken from ChEMBL document CHEMBL6114976, “Structure-based design, synthesis and biological evaluation of a novel d-amino acid-containing peptide inhibitor by blocking the RAD51-BRCA2 interaction for the treatment of kidney cancer” (Eur J Med Chem, 2025).
Active and inactive are the calls of the source. The rule behind the calls is not given here. Residues, ends and D or L forms follow the SMILES beside them.

How the values were obtained:
[1] = test system: 786-0; assay: Inhibition of cell proliferation of human 786-0 cells at 3 uM incubated for 72 hrs by MTT assay relative to control; assay type: functional
[2] = target: T1, DNA repair protein RAD51 homolog 1 (Homo sapiens, UniProt Q06609); assay: Binding affinity to RAD51 (unknown origin) assessed as dissociation constant by MST assay
T1 sequence (Q06609 whole entry): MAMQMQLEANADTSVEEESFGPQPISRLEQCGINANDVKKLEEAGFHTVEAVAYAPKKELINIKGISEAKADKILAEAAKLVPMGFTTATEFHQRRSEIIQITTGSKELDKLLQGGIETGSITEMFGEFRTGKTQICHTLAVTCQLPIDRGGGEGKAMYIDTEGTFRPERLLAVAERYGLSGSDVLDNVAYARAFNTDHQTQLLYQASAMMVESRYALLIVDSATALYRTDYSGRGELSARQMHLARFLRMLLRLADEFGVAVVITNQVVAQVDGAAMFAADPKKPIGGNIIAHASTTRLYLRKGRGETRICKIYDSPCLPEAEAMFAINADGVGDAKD

[3] = test system: A498; assay: Inhibition of cell proliferation of human A498 cells incubated for 72 hrs by MTT assay; assay type: functional, cell-based; conditions: A498, 72 h
[4] = Inhibition of cell proliferation of human HK-2 cells incubated for 72 hrs by MTT assay; assay type: toxicity, cell-based
[5] = Toxicity in BALB/c nude mouse xenografted with human 786-0 cells assessed as change in AST level at 10 to 20 mg/kg, iv measured for 21 days; assay type: organism-based; conditions: in vivo, 504 h, dose 10-20 mg/kg, time 21 day
[6] = test system: 786-0; assay: Induction of DNA damage in human 786-0 cells assessed as increase in gamma-H2AX mRNA level incubated for 48 hrs by qPCR analysis; assay type: functional, cell-based; conditions: dose 100-300 nM
[7] = target: T1, DNA repair protein RAD51 homolog 1; assay: Inhibition of RAD51 (unknown origin) in presence of AlexaFluor 488-labeled BRC4 by fluorescence polarization competitive binding assay
[8] = test system: ACHN; assay: Inhibition of cell proliferation of human ACHN cells incubated for 72 hrs by MTT assay; assay type: functional, cell-based
[9] = Inhibition of cell proliferation of human SNU-349 cells incubated for 72 hrs by MTT assay; assay type: functional, cell-based; conditions: SNU-349, 72 h
[10] = test system: CAKI-1; assay: Inhibition of cell proliferation of human CAKI-1 cells incubated for 72 hrs by MTT assay; assay type: functional, cell-based; conditions: CAKI-1, 72 h
[11] = AUC in BALB/c mouse at 10 mg/kg, iv measured for 0.25 to 24 hrs by LC-MS/MS analysis; assay type: ADME, organism-based; conditions: in vivo, time 0.25-24 hrs
[12] = test system: 786-0; assay: Antitumor activity against human 786-0 cells xenografted in BALB/c nude mouse assessed as tumor growth inhibition administered intravenously measured for 21 days; assay type: functional, cell-based; conditions: dose 10-20 mg/kg, route iv, time 21.0 day
[13] = Inhibition of cell proliferation of human MCF-10A cells incubated for 72 hrs by MTT assay; assay type: toxicity, cell-based
[14] = test system: 786-0; assay: cells; conditions: Homo sapiens, 786-0, 72 h
Description: Inhibition of cell proliferation of human 786-0 cells incubated for 72 hrs by MTT assay

[15] = Half life in BALB/c mouse at 10 mg/kg, iv measured for 0.25 to 24 hrs by LC-MS/MS analysis; assay type: ADME, organism-based; conditions: in vivo, time 0.25-24 hrs
[16] = test system: 786-0; assay: Antitumor activity against human 786-0 cells xenografted in BALB/c nude mouse assessed as reduction in tumor weight at 10 to 20 mg/kg, iv measured for 21 days; assay type: functional, organism-based; conditions: dose 10-20 mg/kg, time 21.0 day
[17] = test system: 786-0; assay: Inhibition of HR repair in human 786-0 cells transfected with plasmids upto 640 nM incubated for 5 hrs by real-time PCR assay; assay type: functional, cell-based
[18] = Stability in mouse serum assessed as compound remaining at 5 uM measured after 360 mins by HPLC analysis; assay type: ADME, cell-free; conditions: read-out: Stability
[19] = Tmax in BALB/c mouse at 10 mg/kg, iv measured for 0.25 to 24 hrs by LC-MS/MS analysis; assay type: ADME, organism-based; conditions: in vivo, time 0.25-24 hrs
[20] = Toxicity in BALB/c nude mouse xenografted with human 786-0 cells assessed as change in ALT level at 10 to 20 mg/kg, iv measured for 21 days; assay type: organism-based; conditions: in vivo, 504 h, dose 10-20 mg/kg, time 21 day
[21] = Toxicity in BALB/c nude mouse xenografted with human 786-0 cells assessed as change in BUN level at 10 to 20 mg/kg, iv measured for 21 days; assay type: organism-based; conditions: in vivo, 504 h, dose 10-20 mg/kg, time 21 day
[22] = Inhibition of cell proliferation of human Hkb20 cells incubated for 72 hrs by MTT assay; assay type: toxicity, cell-based
[23] = Toxicity in BALB/c nude mouse xenografted with human 786-0 cells assessed as change in CREA level at 10 to 20 mg/kg, iv measured for 21 days; assay type: organism-based; conditions: in vivo, 504 h, dose 10-20 mg/kg, time 21 day
[24] = test system: 786-0; assay: Antitumor activity against human 786-0 cells xenografted in BALB/c nude mouse assessed as reduction in tumor volume at 10 to 20 mg/kg, iv measured for 21 days; assay type: functional, organism-based; conditions: dose 10-20 mg/kg, time 21.0 day
[25] = Cmax in BALB/c mouse at 10 mg/kg, iv measured for 0.25 to 24 hrs by LC-MS/MS analysis; assay type: ADME, organism-based; conditions: in vivo, time 0.25-24 hrs
[26] = Inhibition of cell proliferation of human GP2-293 cells incubated for 72 hrs by MTT assay; assay type: toxicity, cell-based
[27] = Toxicity in BALB/c nude mouse xenografted with human 786-0 cells assessed as body weight change at 10 to 20 mg/kg, iv measured for 21 days; assay type: organism-based; conditions: in vivo, 504 h, dose 10-20 mg/kg, time 21 day
[28] = Stability in mouse serum assessed as compound remaining at 5 uM measured after 180 mins by HPLC analysis; assay type: ADME, cell-free; conditions: 3 h

SMILES: CC[C@](C)(NC(=O)[C@@H](NC(=O)[C@H](CC(C)C)NC(=O)[C@H](Cc1c[nH]c2ccccc12)NC(=O)[C@H](CO)NC(C)=O)[C@@H](C)O)C(N)=O
- inhibition at 3 µM [1]: > 60%
- Kd [2]: 236 nM

SMILES: CC[C@](C)(NC(=O)[C@@H](NC(=O)[C@H](C)NC(=O)[C@H](Cc1c[nH]c2ccccc12)NC(=O)[C@@H](CO)NC(C)=O)[C@@H](C)O)C(N)=O
- inhibition at 3 µM [1]: > 60%
- Kd [2]: 40.1 nM

SMILES: CC[C@](C)(NC(=O)[C@@H](NC(=O)[C@H](CC(C)C)NC(=O)[C@H](Cc1c[nH]c2ccccc12)NC(=O)[C@@H](CO)NC(C)=O)C(C)C)C(N)=O
- inhibition at 3 µM [1]: > 60%
- Kd [2]: 56.7 nM

SMILES: CC[C@](C)(NC(=O)[C@@H](NC(=O)[C@H](CC(C)C)NC(=O)[C@H](Cc1c[nH]c2ccccc12)NC(=O)[C@@H](CO)NC(C)=O)[C@@H](C)O)C(N)=O
- IC50 [3]: 680 nM
- IC50 at 72 h [4]: > 10000 nM
- inhibition at 3 µM [1]: > 90%
- Activity [5]: Non-toxic
- Activity [6]: Dose-dependent-effect
- IC50 [7]: 35 nM
- IC50 [8]: 310 nM
- IC50 [9]: 250 nM
- Kd [2]: 9.24 nM
- IC50 [10]: 510 nM
- AUC [11]: 13000 ng·h/mL
- Activity [12]: Dose-dependent-effect
- IC50 at 72 h [13]: > 10000 nM
- IC50 [14]: 90 nM
- half-life [15]: 7.38 h
- Activity [16]: Active
- inhibition [17]: Dose-dependent-effect
- remaining at 6 h, 5 µM [18]: 85%
- Tmax [19]: 0.29 h
- Activity [20]: Non-toxic
- Activity [21]: Non-toxic
- IC50 at 72 h [22]: > 10000 nM
- Activity [23]: Non-toxic
- Activity [24]: Active
- Cmax [25]: 6470 ng/mL
- IC50 at 72 h [26]: > 10000 nM
- Activity [27]: Non-toxic

SMILES: CC[C@H](C)[C@H](NC(=O)[C@H](CCCCN)NC(=O)[C@@H](NC(=O)[C@H](CCCCN)NC(=O)[C@H](CCCCN)NC(=O)CNC(=O)[C@H](CO)NC(=O)[C@H](C)NC(=O)[C@@H](NC(=O)[C@H](Cc1c[nH]cn1)NC(=O)[C@H](Cc1ccccc1)NC(=O)CNC(=O)[C@H](CC(C)C)NC(=O)[C@H](CC(C)C)NC(C)=O)[C@@H](C)O)C(C)C)C(=O)N[C@@H](C)C(=O)N[C@@H](CCCCN)C(N)=O (Ac-LLGFHTASGKKVKIAK-NH2)
- Kd [2]: 602 nM
- Stability [28]: Unstable
- IC50 [14]: > 10000 nM

SMILES: CC(=O)N[C@H](CO)C(=O)N[C@@H](Cc1ccccc1)C(=O)N[C@@H](CC(C)C)C(=O)N[C@H](C(=O)N[C@@H](C)C(N)=O)C(C)C
- inhibition at 3 µM [1]: > 60%
- Kd [2]: 145 nM

SMILES: CC[C@](C)(NC(=O)[C@@H](NC(=O)[C@H](CC(C)C)NC(=O)[C@H](Cc1ccccc1)NC(=O)[C@@H](CO)NC(C)=O)[C@@H](C)O)C(N)=O
- inhibition at 3 µM [1]: > 60%
- Kd [2]: 128 nM
